Laboratory results from the NIST ThermoML archive (doi:10.1016/j.jct.2015.02.010).
Several values for one entry are separate records, joined by “and”; a condition that tells them apart may be missing. Equal entries are not always repeated. ± gives the expanded uncertainty stated by the source.

Columns and labels:
[1] = Crystal; for vapor or sublimation pressure: Calculated from knudsen effusion weight loss; for Normal melting temperature: DTA
[2] = Molar enthalpy of transition or fusion; settings: Crystal; DSC

CC(=O)Oc1cccc(C(=O)O)c1 [3-acetoxybenzoic acid]
vapor or sublimation pressure ([1]; 344.16 K): 0.000129 ± 2.1e-05 kPa and 0.000124 ± 2e-05 kPa and 0.000123 ± 2e-05 kPa | vapor or sublimation pressure ([1]; 346.15 K): 0.000158 ± 2.1e-05 kPa and 0.000163 ± 2.1e-05 kPa and 0.000157 ± 2.1e-05 kPa | vapor or sublimation pressure ([1]; 348.2 K): 0.000198 ± 2.1e-05 kPa and 0.000199 ± 2.1e-05 kPa and 0.000205 ± 2.1e-05 kPa | vapor or sublimation pressure ([1]; 350.13 K): 0.000251 ± 2.2e-05 kPa and 0.00025 ± 2.2e-05 kPa and 0.000257 ± 2.2e-05 kPa | vapor or sublimation pressure ([1]; 353.17 K): 0.000355 ± 2.4e-05 kPa and 0.000357 ± 2.4e-05 kPa and 0.00037 ± 2.4e-05 kPa | vapor or sublimation pressure ([1]; 356.21 K): 0.000497 ± 2.7e-05 kPa and 0.000499 ± 2.7e-05 kPa and 0.00051 ± 2.7e-05 kPa | vapor or sublimation pressure ([1]; 358.16 K): 0.000631 ± 3e-05 kPa and 0.000652 ± 3.1e-05 kPa | vapor or sublimation pressure ([1]; 360.17 K): 0.000813 ± 3.5e-05 kPa and 0.00081 ± 3.5e-05 kPa | vapor or sublimation pressure ([1]; 362.16 K): 0.000967 ± 5.3e-05 kPa and 0.000966 ± 5.3e-05 kPa and 0.001004 ± 8.2e-05 kPa | Normal melting temperature [1]: 131.61 ± 0.39 °C | Molar enthalpy of transition or fusion [2]: 6.28 ± 0.146 kcal/mol

CC(=O)Nc1cccc(C(=O)O)c1 [3-(acetylamino)benzoic acid]
vapor or sublimation pressure ([1]; 423.22 K): 0.000156 ± 2.1e-05 kPa | vapor or sublimation pressure ([1]; 425.28 K): 0.000193 ± 2.1e-05 kPa and 0.000189 ± 2.1e-05 kPa | vapor or sublimation pressure ([1]; 427.09 K): 0.000223 ± 2.2e-05 kPa and 0.000219 ± 2.1e-05 kPa | vapor or sublimation pressure ([1]; 429.23 K): 0.000279 ± 2.2e-05 kPa and 0.000283 ± 2.2e-05 kPa | vapor or sublimation pressure ([1]; 431.28 K): 0.000336 ± 2.3e-05 kPa and 0.000341 ± 2.3e-05 kPa | vapor or sublimation pressure ([1]; 433.24 K): 0.00041 ± 2.5e-05 kPa and 0.000419 ± 2.5e-05 kPa | vapor or sublimation pressure ([1]; 435.1 K): 0.000495 ± 2.7e-05 kPa and 0.000496 ± 2.7e-05 kPa | vapor or sublimation pressure ([1]; 437.29 K): 0.000619 ± 3e-05 kPa and 0.000621 ± 3e-05 kPa | vapor or sublimation pressure ([1]; 439.23 K): 0.000751 ± 3.3e-05 kPa and 0.000744 ± 3.3e-05 kPa | vapor or sublimation pressure ([1]; 441.1 K): 0.000886 ± 5.1e-05 kPa and 0.000907 ± 5.1e-05 kPa | Normal melting temperature [1]: 249.04 ± 0.39 °C | Molar enthalpy of transition or fusion [2]: 10.1 ± 0.234 kcal/mol

CC(=O)Oc1ccccc1C(=O)O [2-acetoxybenzoic acid]
vapor or sublimation pressure ([1]; 341.11 K): 0.00012 ± 2e-05 kPa and 0.000119 ± 2e-05 kPa | vapor or sublimation pressure ([1]; 343.24 K): 0.000147 ± 2.1e-05 kPa and 0.000158 ± 2.1e-05 kPa | vapor or sublimation pressure ([1]; 345.28 K): 0.000194 ± 2.1e-05 kPa and 0.000203 ± 2.1e-05 kPa | vapor or sublimation pressure ([1]; 347.1 K): 0.00023 ± 2.2e-05 kPa and 0.000238 ± 2.2e-05 kPa | vapor or sublimation pressure ([1]; 349.24 K): 0.00029 ± 2.2e-05 kPa and 0.000305 ± 2.3e-05 kPa | vapor or sublimation pressure ([1]; 351.27 K): 0.000378 ± 2.4e-05 kPa and 0.000387 ± 2.4e-05 kPa | vapor or sublimation pressure ([1]; 353.1 K): 0.000478 ± 2.6e-05 kPa and 0.000471 ± 2.6e-05 kPa | vapor or sublimation pressure ([1]; 355.28 K): 0.000599 ± 6.4e-05 kPa and 0.000643 ± 6.4e-05 kPa | vapor or sublimation pressure ([1]; 357.27 K): 0.000744 ± 8.4e-05 kPa and 0.000796 ± 8.5e-05 kPa | vapor or sublimation pressure ([1]; 359.23 K): 0.00089 ± 0.00011 kPa and 0.000966 ± 0.00011 kPa | vapor or sublimation pressure ([1]; 361.11 K): 0.001165 ± 9.3e-05 kPa | Normal melting temperature [1]: 134.23 ± 0.39 °C | Molar enthalpy of transition or fusion [2]: 8.09 ± 0.174 kcal/mol

CC(=O)Nc1ccccc1C(=O)O [2-acetamidobenzoic acid]
vapor or sublimation pressure ([1]; 367.17 K): 8.3e-05 ± 2e-05 kPa | vapor or sublimation pressure ([1]; 369.28 K): 0.000109 ± 2e-05 kPa and 0.000106 ± 2e-05 kPa and 0.000108 ± 2e-05 kPa | vapor or sublimation pressure ([1]; 371.16 K): 0.000128 ± 2.1e-05 kPa | vapor or sublimation pressure ([1]; 373.16 K): 0.00016 ± 2.1e-05 kPa and 0.000163 ± 2.1e-05 kPa | vapor or sublimation pressure ([1]; 375.26 K): 0.000207 ± 2.1e-05 kPa and 0.00021 ± 2.1e-05 kPa | vapor or sublimation pressure ([1]; 377.16 K): 0.000248 ± 2.2e-05 kPa and 0.000255 ± 2.2e-05 kPa and 0.000258 ± 2.2e-05 kPa | vapor or sublimation pressure ([1]; 379.19 K): 0.000305 ± 2.3e-05 kPa and 0.000303 ± 2.3e-05 kPa and 0.000308 ± 2.3e-05 kPa | vapor or sublimation pressure ([1]; 381.29 K): 0.000385 ± 2.4e-05 kPa and 0.000373 ± 2.4e-05 kPa and 0.000378 ± 2.4e-05 kPa | vapor or sublimation pressure ([1]; 383.16 K): 0.000438 ± 2.5e-05 kPa | vapor or sublimation pressure ([1]; 385.15 K): 0.000577 ± 2.9e-05 kPa and 0.000561 ± 2.8e-05 kPa and 0.000574 ± 2.9e-05 kPa | vapor or sublimation pressure ([1]; 387.26 K): 0.000697 ± 8.4e-05 kPa and 0.000711 ± 8.4e-05 kPa and 0.00078 ± 8.5e-05 kPa | vapor or sublimation pressure ([1]; 389.15 K): 0.000829 ± 3.5e-05 kPa and 0.00084 ± 3.6e-05 kPa | Normal melting temperature [1]: 181.96 ± 0.41 °C | Molar enthalpy of transition or fusion [2]: 7.01 ± 0.155 kcal/mol
